Experimental data taken from ChEMBL document CHEMBL1156236, “Trypanoside, anti-tuberculosis, leishmanicidal, and cytotoxic activities of tetrahydrobenzothienopyrimidines” (Bioorg Med Chem, 2010).

Assays:
NCI-H460 = test: Cytotoxicity against human NCI-H460 cells; assay type: functional
MCF7 = test: Cytotoxicity against human MCF7 cells; assay type: functional
DU-145 = test: Cytotoxicity against human DU145 cells; assay type: functional
M14 = test: Cytotoxicity against human M14 cells; assay type: functional
K562 = test: Cytotoxicity against human K562 cells; assay type: functional
[1] = Cytotoxicity against BALB mouse 3T3 cells; assay type: cell-based; conditions: BALB 3T3 cells
Trypanosoma cruzi = test: Antitrypanosomal activity against Trypanosoma cruzi tulahuen C4 trypomastigotes infected in african green monkey Vero cells assessed as CPRG cleavage after 120 hrs by microplate reader; assay type: functional, organism-based
[2] = test system: Mycobacterium tuberculosis; test: Antitubercular activity against Mycobacterium tuberculosis H37Rv ATCC 27294 after 7 days by microplate alamar blue assay; assay type: functional; conditions: H37Rv ATCC 27294, 168 h
HT-29 = test: Cytotoxicity against human HT-29 cells; assay type: functional
Leishmania amazonensis = test: Antileishmanial activity against Leishmania amazonensis MHOM/BR/76/LTB-012 amastigotes infected BALB/c mouse macrophages after 48 hrs by MTT assay; assay type: functional, organism-based; conditions: MHOM/BR/76/LTB-012, 48 h
[3] = Cytotoxicity against BALB/c mouse macrophages after 48 hrs by trypan blue dye exclusion method; assay type: cell-based; conditions: Macrophage
[4] = Selectivity index, ratio of IC50 for BALB/c mouse macrophages to IC50 for Leishmania amazonensis MHOM/BR/76/LTB-012
Vero = test: Cytotoxicity against african green monkey Vero cells after 72 hrs by MTS assay; conditions: Chlorocebus sabaeus, Vero, 72 h
[5] = Selectivity index, ratio of IC50 for african green monkey Vero cells to IC50 for Trypanosoma cruzi tulahuen C4

## O=c1[nH]cc(F)c(=O)[nH]1 [FLUOROURACIL]
NCI-H460
  GI50: 2.3 µM
MCF7
  GI50: 4.5 µM
DU-145
  GI50: 5.3 µM
M14
  GI50: 32.4 µM
K562
  GI50: 89.9 µM
[1]
  GI50: < 3 µM

## COc1cc(/C=N/Nc2ncnc3sc4c(c23)CCCC4)cc(OC)c1OC
NCI-H460
  GI50: 28.3 µM
MCF7
  GI50: 10.5 µM
Trypanosoma cruzi
  IC50: > 25 µM
[2]
  MIC: > 250 µM
HT-29
  GI50: 11.4 µM
DU-145
  GI50: 22.5 µM
Leishmania amazonensis
  IC50: 7.2 µM
[3]
  IC50: 8.9 µM
M14
  GI50: 15.6 µM
K562
  GI50: 4.7 µM
[1]
  GI50: 22.5 µM
[4]
  Ratio IC50: 1.2

## N#Cc1ccc(/C=N/Nc2ncnc3sc4c(c23)CCCC4)cc1
NCI-H460
  GI50: > 170 µM
MCF7
  GI50: 102 µM
Trypanosoma cruzi
  IC50: > 25 µM
[2]
  MIC: > 300 µM
HT-29
  GI50: > 170 µM
DU-145
  GI50: > 170 µM
Leishmania amazonensis
  IC50: 32.3 µM
[3]
  IC50: 162 µM
M14
  GI50: > 170 µM
K562
  GI50: > 170 µM
[1]
  GI50: 150 µM
[4]
  Ratio IC50: 5

## C[C@@H]1[C@H](O)[C@@H](C)/C=C/C=C/C=C/C=C/C=C/C=C/C=C/[C@H](O[C@@H]2O[C@H](C)[C@@H](O)[C@H](N)[C@@H]2O)C[C@@H]2O[C@](O)(C[C@@H](O)C[C@@H](O)[C@H](O)CC[C@@H](O)C[C@@H](O)CC(=O)O[C@H]1C)C[C@H](O)[C@H]2C(=O)O [AMPHOTERICIN B]
[3]
  IC50: 5.4 µM
[4]
  Ratio IC50: 54

## C(=N\Nc1ncnc2sc3c(c12)CCCC3)/c1ccc2ccccc2c1
NCI-H460
  GI50: 20.8 µM
Vero
  IC50: 13.9 µM
MCF7
  GI50: 9.3 µM
Trypanosoma cruzi
  IC50: 13.3 µM
[2]
  MIC: > 250 µM
HT-29
  GI50: 19.4 µM
DU-145
  GI50: 24.1 µM
[5]; Vero cells
  selectivity ratio: 1.1
Leishmania amazonensis
  IC50: 39 µM
[3]
  IC50: 15.9 µM
M14
  GI50: 35.2 µM
K562
  GI50: 6.2 µM
[1]
  GI50: 27.9 µM
[4]
  Ratio IC50: 0.4

## Cc1ccc(/C=N/Nc2ncnc3sc4c(c23)CCCC4)cc1
NCI-H460
  GI50: 133 µM
MCF7
  GI50: 12.9 µM
Trypanosoma cruzi
  IC50: > 25 µM
[2]
  MIC: > 250 µM
HT-29
  GI50: > 170 µM
DU-145
  GI50: > 170 µM
Leishmania amazonensis
  IC50: 42.6 µM
[3]
  IC50: 19.4 µM
M14
  GI50: > 170 µM
K562
  GI50: 7.1 µM
[1]
  GI50: 37.5 µM
[4]
  Ratio IC50: 0.5

## C(=N\Nc1ncnc2sc3c(c12)CCCC3)/c1cccc2ccccc12
NCI-H460
  GI50: 19.9 µM
Vero
  IC50: 2.8 µM
MCF7
  GI50: 6.3 µM
Trypanosoma cruzi
  IC50: 13 µM
[2]
  MIC: > 250 µM
HT-29
  GI50: 6.2 µM
DU-145
  GI50: 24.1 µM
[5]; Vero cells
  selectivity ratio: 0.2
Leishmania amazonensis
  IC50: 12.7 µM
[3]
  IC50: 16.6 µM
M14
  GI50: 18.4 µM
K562
  GI50: 4.7 µM
[1]
  GI50: 16.7 µM
[4]
  Ratio IC50: 1.3

## COc1cc(/C=N/Nc2ncnc3sc4c(c23)CCCC4)ccc1O
Leishmania amazonensis
  IC50: 7.2 µM

## CC(C)(C)c1ccc(/C=N/Nc2ncnc3sc4c(c23)CCCC4)cc1
NCI-H460
  GI50: 6.4 µM
Vero
  IC50: 13.7 µM
MCF7
  GI50: 6.3 µM
Trypanosoma cruzi
  IC50: 11.2 µM
[2]
  MIC: > 250 µM
HT-29
  GI50: 15.7 µM
DU-145
  GI50: 21.9 µM
[5]; Vero cells
  selectivity ratio: 1.2
Leishmania amazonensis
  IC50: 1.7 µM
[3]
  IC50: 6.6 µM
M14
  GI50: 30.3 µM
K562
  GI50: 6.4 µM
[1]
  GI50: 23.2 µM
[4]
  Ratio IC50: 3.8

## C(=N\Nc1ncnc2sc3c(c12)CCCC3)/c1ccc2c(c1)OCO2
NCI-H460
  GI50: > 250 µM
Vero
  IC50: 17 µM
MCF7
  GI50: 117 µM
Trypanosoma cruzi
  IC50: 22.8 µM
[2]
  MIC: > 250 µM
HT-29
  GI50: > 250 µM
DU-145
  GI50: > 250 µM
[5]; Vero cells
  selectivity ratio: 0.7
Leishmania amazonensis
  IC50: 29.4 µM
[3]
  IC50: 16.3 µM
M14
  GI50: > 250 µM
K562
  GI50: > 250 µM
[1]
  GI50: > 250 µM
[4]
  Ratio IC50: 0.6

## CC(C)c1ccc(/C=N/Nc2ncnc3sc4c(c23)CCCC4)cc1
NCI-H460
  GI50: 5.9 µM
Vero
  IC50: 2.9 µM
MCF7
  GI50: 5.2 µM
Trypanosoma cruzi
  IC50: 5.2 µM
[2]
  MIC: > 250 µM
HT-29
  GI50: 5.9 µM
DU-145
  GI50: 10.8 µM
[5]; Vero cells
  selectivity ratio: 0.5
Leishmania amazonensis
  IC50: 3.6 µM
[3]
  IC50: 8.4 µM
M14
  GI50: 17.8 µM
K562
  GI50: 4.1 µM
[1]
  GI50: 9.4 µM
[4]
  Ratio IC50: 2.3

## COc1cc(/C=N/Nc2ncnc3sc4c(c23)CCCC4)cc(OC)c1O
NCI-H460
  GI50: > 170 µM
MCF7
  GI50: > 170 µM
Trypanosoma cruzi
  IC50: > 25 µM
[2]
  MIC: > 250 µM
HT-29
  GI50: > 170 µM
DU-145
  GI50: 27.2 µM
Leishmania amazonensis
  IC50: 40.8 µM
[3]
  IC50: 121 µM
M14
  GI50: > 170 µM
K562
  GI50: > 170 µM
[1]
  GI50: 27.3 µM
[4]
  Ratio IC50: 3

## c1ccc(C(=NNc2ncnc3sc4c(c23)CCCC4)c2ccccc2)cc1
NCI-H460
  GI50: > 170 µM
MCF7
  GI50: > 170 µM
Trypanosoma cruzi
  IC50: > 25 µM
[2]
  MIC: > 250 µM
HT-29
  GI50: > 170 µM
DU-145
  GI50: > 170 µM
Leishmania amazonensis
  IC50: 182 µM
[3]
  IC50: 156 µM
M14
  GI50: > 170 µM
K562
  GI50: > 170 µM
[1]
  GI50: > 170 µM
[4]
  Ratio IC50: 0.9

## O=[N+]([O-])c1ccc(/C=N/Nc2ncnc3sc4c(c23)CCCC4)cc1
NCI-H460
  GI50: > 170 µM
MCF7
  GI50: > 170 µM
Trypanosoma cruzi
  IC50: > 25 µM
[2]
  MIC: > 250 µM
HT-29
  GI50: > 170 µM
DU-145
  GI50: > 170 µM
Leishmania amazonensis
  IC50: 38.5 µM
[3]
  IC50: 199 µM
M14
  GI50: > 170 µM
K562
  GI50: > 170 µM
[1]
  GI50: > 170 µM
[4]
  Ratio IC50: 5.2

## CC1CS(=O)(=O)CCN1/N=C/c1ccc([N+](=O)[O-])o1 (stereo not given) [NIFURTIMOX]
Vero
  IC50: 94 µM
Trypanosoma cruzi
  IC50: 4.5 µM
[5]; vero
  selectivity ratio: 20.8

## C(=N\Nc1ncnc2sc3c(c12)CCCC3)/c1ccncc1
NCI-H460
  GI50: 169 µM
MCF7
  GI50: 83.9 µM
Trypanosoma cruzi
  IC50: > 25 µM
[2]
  MIC: > 300 µM
HT-29
  GI50: 153 µM
DU-145
  GI50: 83.9 µM
Leishmania amazonensis
  IC50: 233 µM
[3]
  IC50: 154 µM
M14
  GI50: > 150 µM
K562
  GI50: 109 µM
[1]
  GI50: 83.2 µM
[4]
  Ratio IC50: 0.7

## C=CCOc1cc(/C=N/Nc2ncnc3sc4c(c23)CCCC4)cc(OCC=C)c1Br
NCI-H460
  GI50: 3.1 µM
Vero
  IC50: 6 µM
MCF7
  GI50: 3.8 µM
Trypanosoma cruzi
  IC50: 15.4 µM
[2]
  MIC: > 200 µM
HT-29
  GI50: 3.9 µM
DU-145
  GI50: < 2 µM
[5]; Vero cells
  selectivity ratio: 0.4
Leishmania amazonensis
  IC50: 5.3 µM
[3]
  IC50: 3.5 µM
M14
  GI50: 12.8 µM
K562
  GI50: 3.9 µM
[1]
  GI50: < 2 µM
[4]
  Ratio IC50: 0.7

## O=[N+]([O-])c1ccccc1/C=N/Nc1ncnc2sc3c(c12)CCCC3
NCI-H460
  GI50: 52.9 µM
MCF7
  GI50: 52 µM
Trypanosoma cruzi
  IC50: > 25 µM
[2]
  MIC: > 250 µM
HT-29
  GI50: > 170 µM
DU-145
  GI50: 103 µM
Leishmania amazonensis
  IC50: 108 µM
[3]
  IC50: > 200 µM
M14
  GI50: > 170 µM
K562
  GI50: > 170 µM
[1]
  GI50: > 170 µM

## COc1ccc(/C=N/Nc2ncnc3sc4c(c23)CCCC4)c(OC)c1
NCI-H460
  GI50: 29.5 µM
Vero
  IC50: 32.6 µM
MCF7
  GI50: 21.1 µM
Trypanosoma cruzi
  IC50: 18.5 µM
[2]
  MIC: > 250 µM
HT-29
  GI50: 20 µM
DU-145
  GI50: 20 µM
[5]; Vero cells
  selectivity ratio: 1.8
Leishmania amazonensis
  IC50: 33.2 µM
[3]
  IC50: 144 µM
M14
  GI50: 94.4 µM
K562
  GI50: 7.9 µM
[1]
  GI50: 19.9 µM
[4]
  Ratio IC50: 4.3
